From EP4806898A1, “HETEROARYL DERIVATIVE COMPOUND AND USE THEREOF” (Voronoi Inc., priority 2023, dated 2025) come the findings set out here.

Like-named read-outs stand apart in the source and are kept apart here.

One experiment concerns the target T1, recombinant USP1 protein (Homo sapiens, UniProt O94782, DEL125-138/DEL229-408/DEL608-737).
T1 sequence (O94782 with tags, fused parts or gaps DEL125-138/DEL229-408/DEL608-737): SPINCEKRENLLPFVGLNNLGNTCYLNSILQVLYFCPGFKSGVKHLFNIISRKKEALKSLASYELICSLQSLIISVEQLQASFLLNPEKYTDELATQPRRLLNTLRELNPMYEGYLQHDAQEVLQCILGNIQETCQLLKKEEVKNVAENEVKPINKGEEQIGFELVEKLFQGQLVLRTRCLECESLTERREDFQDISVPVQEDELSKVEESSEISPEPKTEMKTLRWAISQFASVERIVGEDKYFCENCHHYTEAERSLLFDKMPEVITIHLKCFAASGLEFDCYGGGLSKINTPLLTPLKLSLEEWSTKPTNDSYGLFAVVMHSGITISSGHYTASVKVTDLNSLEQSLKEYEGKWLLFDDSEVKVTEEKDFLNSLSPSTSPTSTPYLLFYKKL
The experiment is described as follows: Binding affinity to recombinant USP1 protein by differential scanning fluorimetry. To be noted: read-out: ΔTm (°C). A digest of the protocol: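 USP1 (Δ1-66, Δ125-138, Δ229-408, Δ608-737) at 0.03 mg/mL with dye in 50 mM Tris-HCl pH 8.0, 150 mM NaCl, 2% glycerol, 1 mM DTT; compounds at 100 µM final. Tm read on real-time PCR instrument; ΔTm = Tm with compound minus Tm with DMSO.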

The test system of another experiment is UWB1.289 cells. The experiment is described as follows: Cell proliferation inhibitory activity in BRCA1/2-mutant or HRD-positive cells (Cell Titer-Glo). To be noted: read-out: GI50 UWB1.289 BRCA1 mut. The format is cell-based. A digest of the protocol: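 UWB1.289 cells (1,000/well) in 50% MEBM/50% RPMI1640 exposed to […], final 1.5 nM to 10 µM, for 144 h at 37 °C. Viable cells measured by CellTiter-Glo luminescence; GI50 calculated.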
A general note: Cellular ATP, detected with luciferase, serves as a proxy for viable cell number.

Where [1] appears, read: compound 100 µM, 0.03 mg/mL USP1 (Δ1-66, Δ125-138, Δ229-408, Δ608-737), Tm with compound minus Tm with DMSO.
The mark [2] stands for this setting: UWB1289, UWB1.289 cells, 144 hours after compound treatment, Cell Titer-Glo, 1.5 nM to 10 µM.

One may read the ΔTm as the change in melting temperature against a reference sample. One may read the GI50 as the concentration giving 50% growth inhibition. On to `COc1ncnc(C2CC2)c1-c1ncc2cc(C(=O)N(C)C3COC3)n(Cc3ccc(-c4nc(C(F)(F)F)cn4C(C)C)cc3)c2n1` [Example 111, 2-(4-cyclopropyl-6-methoxypyrimidin-5-yl)-7-(4-(1-isopropyl-4-(trifluoromethyl)-1H-imidazol-2-yl)benzyl)-N-methyl-N-(oxetan-3-yl)-7H-pyrrolo[2,3-d]pyrimidine-6-carboxamide], for which the ΔTm at 100 µM on recombinant USP1 protein (setting [1]) is over 5 °C. For the same molecule, the GI50 in the experiment with UWB1.289 cells (setting [2]) lay within 100 to 500 nM.
As to `COc1ncnc(C2CC2)c1-c1ncc2cc(C(=O)N3C[C@H](O)[C@H]3C)n(Cc3ccc(-c4nc(C(F)(F)F)cn4C(C)C)cc3)c2n1` [Example 112, (2-(4-cyclopropyl-6-methoxypyrimid in-5-yl)-7-(4-(1-isopropyl-4-(trifluoromethyl)-1H-imidazol-2-yl)benzyl)-7H-pyrrolo[2,3-d]pyrimidin-6-yl)((2R,3S)-3-hydroxy-2-methylazetidin-1-yl)methanone], on recombinant USP1 protein (setting [1]), the ΔTm at 100 µM was over 5 °C. Moreover, the GI50 with UWB1.289 cells (setting [2]) was under 100 nM.
In the case of `COc1ncnc(C2CC2)c1-c1ncc2cc(C(=O)N[C@@H](C)CO)n(Cc3ccc(-c4nc(C(F)(F)F)cn4C(C)C)cc3)c2n1` [Example 113, (S)-2-(4-cyclopropyl-6-methoxypyrimidin-5-yl)-N-(1-hydroxypropan-2-yl)-7-(4-(1-isopropyl-4-(trifluoromethyl)-1H-imidazol-2-yl)benzyl)-7H-pyrrolo[2,3-d]pyrimidine-6-carboxamide], the ΔTm at 100 µM on recombinant USP1 protein (setting [1]) is over 5 °C. The 50% growth inhibitory concentration (GI50) in the experiment on UWB1.289 cells (setting [2]) was under 100 nM.
In the case of `COc1ncnc(C2CC2)c1-c1ncc2cc(C(=O)NCC(C)C)n(Cc3ccc(-c4nc(C(F)(F)F)cn4C(C)C)cc3)c2n1` [Example 114, 2-(4-cyclopropyl-6-methoxypyrimidin-5-yl)-N-isobutyl-7-(4-(1-isopropyl-4-(trifluoromethyl)-1H-imidazol-2-yl)benzyl)-7H-pyrrolo[2,3-d]pyrimidine-6-carboxamide], on recombinant USP1 protein (setting [1]), the ΔTm at 100 µM is over 5 °C. In addition, the GI50 in the experiment with UWB1.289 cells (setting [2]) is under 100 nM.
In the case of `COc1ncnc(C2CC2)c1-c1ncc2cc(C(=O)N[C@@H]3CCC[C@H]3N(C)C)n(Cc3ccc(-c4nc(C(F)(F)F)cn4C(C)C)cc3)c2n1` [Example 115, 2-(4-cyclopropyl-6-methoxypyrimidin-5-yl)-N-((1R,2R)-2-(dimethylamino)cyclopentyl)-7-(4-(1-isopropyl-4-(trifluoromethyl)-1H-imidazol-2-yl)benzyl)-7H-pyrrolo[2,3-d]pyrimidine-6-carboxamide], on recombinant USP1 protein (setting [1]), the ΔTm at 100 µM was over 5 °C. For the same molecule, the GI50 with UWB1.289 cells (setting [2]) was under 100 nM.
For `COc1ncnc(C2CC2)c1-c1ncc2cc(C(=O)NC3(C)CC(F)(F)C3)n(Cc3ccc(-c4nc(C(F)(F)F)cn4C(C)C)cc3)c2n1` [Example 116, 2-(4-cyclopropyl-6-methoxypyrimidin-5-yl)-N-(3,3-difluoro-1-methylcyclobutyl)-7-(4-(1-isopropyl-4-(trifluoromethyl)-1H-imidazol-2-yl)benzyl)-7H-pyrrolo[2,3-d]pyrimidine-6-carboxamide], the ΔTm at 100 µM on recombinant USP1 protein (setting [1]) is over 5 °C. Besides, the GI50 in the experiment on UWB1.289 cells (setting [2]) was under 100 nM.
Turning to `COc1ncnc(C2CC2)c1-c1ncc2cc(C(=O)N3CC[C@H](O)C3)n(Cc3ccc(-c4nc(C(F)(F)F)cn4C(C)C)cc3)c2n1` [Example 117, (S)-(2-(4-cyclopropyl-6-methoxypyrimidin-5-yl)-7-(4-(1-isopropyl-4-(trifluoromethyl)-1H-imidazol-2-yl)benzyl)-7H-pyrrolo[2,3-d]pyrimidin-6-yl) (3-hydroxypyrrolidin-1-yl)methanone], at recombinant USP1 protein (setting [1]), the ΔTm at 100 µM was over 5 °C. In addition, the GI50 in the experiment on UWB1.289 cells (setting [2]) is under 100 nM.
With `COc1ncnc(C2CC2)c1-c1ncc2cc(C(=O)NCC(C)(C)N)n(Cc3ccc(-c4nc(C(F)(F)F)cn4C(C)C)cc3)c2n1` [Example 118, N-(2-amino-2-methylpropyl)-2-(4-cyclopropyl-6-methoxypyrimidin-5-yl)-7-(4-(1-isopropyl-4-(trifluoromethyl)-1H-imidazol-2-yl)benzyl)-7H-pyrrolo[2,3-d]pyrimidine-6-carboxamide], the ΔTm at 100 µM at recombinant USP1 protein (setting [1]) was over 5 °C. For the same molecule, in the experiment on UWB1.289 cells (setting [2]), the GI50 is under 100 nM.
`CNC(=O)c1cc2cnc(-c3c(OC(C)C)ncnc3C3CC3)nc2n1Cc1ccc(-c2nc(C(F)(F)F)cn2C(C)C)cc1` [Example 119, 2-(4-cyclopropyl-6-isopropoxypyrimidin-5-yl)-7-(4-(1-isopropyl-4-(trifluoromethyl)-1H-imidazol-2-yl)benzyl)-N-methyl-7H-pyrrolo[2,3-d]pyrimidine-6-carboxamide]: at recombinant USP1 protein (setting [1]), the ΔTm at 100 µM was over 5 °C. Moreover, in the experiment with UWB1.289 cells (setting [2]), the GI50 is under 100 nM.
Consider `COc1ncnc(C2CC2)c1-c1ncc2cc(C(=O)NC3CCN(C4CC4)CC3)n(Cc3ccc(-c4nc(C(F)(F)F)cn4C(C)C)cc3)c2n1` [Example 121, 2-(4-cyclopropyl-6-methoxypyrimidin-5-yl)-N-(1-cyclopropylpiperidin-4-yl)-7-(4-(1-isopropyl-4-(trifluoromethyl)-1H-imidazol-2-yl)benzyl)-7H-pyrrolo[2,3-d]pyrimidine-6-carboxamide], for which the ΔTm at 100 µM at recombinant USP1 protein (setting [1]) is over 5 °C. In addition, the GI50 in the experiment on UWB1.289 cells (setting [2]) was under 100 nM.
In the same order, the values of `COc1ncnc(C2CC2)c1-c1ncc2cc(C(=O)N[C@H]3C[C@H](OC)C3)n(Cc3ccc(-c4nc(C(F)(F)F)cn4C(C)C)cc3)c2n1` [Example 122, 2-(4-cyclopropyl-6-methoxypyrimidin-5-yl)-7-(4-(1-isopropyl-4-(trifluoromethyl)-1H-imidazol-2-yl)benzyl)-N-((1r,3r)-3-methoxycyclobutyl)-7H-pyrrolo[2,3-d]pyrimidine-6-carboxamide] are over 5 °C and 100 to 500 nM.
Regarding `COc1ncnc(C2CC2)c1-c1ncc2cc(C(=O)N3CC[C@@H](OC)C3)n(Cc3ccc(-c4nc(C(F)(F)F)cn4C(C)C)cc3)c2n1` [Example 123, (R) - (2-(4-cyclopropyl-6-methoxypyrimid in-5-yl)-7-(4-(1-isopropyl-4-(trifluoromethyl)-1H-imidazol-2-yl)benzyl)-7H-pyrrolo[2,3-d]pyrimidin-6-yl) (3-methoxypyrrolidin-1-yl)methanone], the ΔTm at 100 µM at recombinant USP1 protein is over 5 °C. Moreover, the GI50 in the experiment on UWB1.289 cells (UWB1289, 144 h) lay in the range of 100 to 500 nM.
On to `COc1ncnc(C2CC2)c1-c1ncc2cc(C(=O)NC[C@@H]3CCCO3)n(Cc3ccc(-c4nc(C(F)(F)F)cn4C(C)C)cc3)c2n1` [Example 124, (S)-2-(4-cyclopropyl-6-methoxypyrimidin-5-yl)-7-(4-(1-isopropyl-4-(trifluoromethyl)-1H-imidazol-2-yl)benzyl)-N-((tetrahydrofuran-2-yl)methyl)-7H-pyrrolo[2,3-d]pyrimidine-6-carboxamide], for which the ΔTm at 100 µM on recombinant USP1 protein (setting [1]) was over 5 °C. Besides, the GI50 in the experiment on UWB1.289 cells (setting [2]) is under 100 nM.
Consider `COc1ncnc(C2CC2)c1-c1ncc2cc(C(=O)NCC3(C)COC3)n(Cc3ccc(-c4nc(C(F)(F)F)cn4C(C)C)cc3)c2n1` [Example 125, 2-(4-cyclopropyl-6-methoxypyrimidin-5-yl)-7-(4-(1-isopropyl-4-(trifluoromethyl)-1H-imidazol-2-yl)benzyl)-N-((3-methyloxetan-3-yl)methyl)-7H-pyrrolo[2,3-d]pyrimidine-6-carboxamide], for which the ΔTm at 100 µM at recombinant USP1 protein (setting [1]) was over 5 °C. For the same molecule, in the experiment with UWB1.289 cells (setting [2]), the GI50 is under 100 nM.
As to `COc1ncnc(C2CC2)c1-c1ncc2cc(C(=O)NC3CCN(CC(C)(C)F)CC3)n(Cc3ccc(-c4nc(C(F)(F)F)cn4C(C)C)cc3)c2n1` [Example 126, 2-(4-cyclopropyl-6-methoxypyrimidin-5-yl)-N-(1-(2-fluoro-2-methylpropyl)piperidin-4-yl)-7-(4-(1-isopropyl-4-(trifluoromethyl)-1H-imidazol-2-yl)benzyl)-7H-pyrrolo[2,3-d]pyrimidine-6-carboxamide], on recombinant USP1 protein (setting [1]), the ΔTm at 100 µM is over 5 °C. Further, the GI50 in the experiment with UWB1.289 cells (setting [2]) was under 100 nM.
Turning to `COc1ncnc(C2CC2)c1-c1ncc2cc(C(=O)NC[C@H]3CCCO3)n(Cc3ccc(-c4nc(C(F)(F)F)cn4C(C)C)cc3)c2n1` [Example 127, (R) -2-(4-cyclopropyl-6-methoxypyrimidin-5-yl)-7-(4-(1-isopropyl-4-(trifluoromethyl)-1H-imidazol-2-yl)benzyl)-N-((tetrahydrofuran-2-yl)methyl)-7H-pyrrolo[2,3-d]pyrimidine-6-carboxamide], at recombinant USP1 protein (setting [1]), the ΔTm at 100 µM is over 5 °C. For the same molecule, in the experiment with UWB1.289 cells (setting [2]), the GI50 was under 100 nM.
For `COc1ncnc(C2CC2)c1-c1ncc2cc(C(=O)N3CC[C@H](OC)C3)n(Cc3ccc(-c4nc(C(F)(F)F)cn4C(C)C)cc3)c2n1` [Example 128, (S)-(2-(4-cyclopropyl-6-methoxypyrimidin-5-yl)-7-(4-(1-isopropyl-4-(trifluoromethyl)-1H-imidazol-2-yl)benzyl)-7H-pyrrolo[2,3-d]pyrimidin-6-yl) (3-methoxypyrrolidin-1-yl)methanone] the same measures were over 5 °C and under 100 nM.
